Broadly, the melting point is the temperature of the solid-liquid transition.

Each structure is given as a SMILES string.

`Cc1cc(S(=O)(=O)CCC(=O)O)ccc1NC(=O)Cc1ccc(C)c(Oc2cc(Cl)cc(C#N)c2)c1` [Compound I-125, 3-(4-{2-[3-(3-Chloro-5-cyano-phenoxy)-4-methyl-phenyl]-acetylamino}-3-methyl-benzenesulfonyl)-propionic acid]: the melting point lay in the range of 74.3 to 76.5 °C.

On to `CC(C)[C@H](N)C(=O)NS(=O)(=O)c1ccc(NC(=O)Cc2ccc(Cl)c(Oc3cc(Cl)cc(C#N)c3)c2F)c(Cl)c1.[Na]` [Compound I-127, N-[4-((S)-2-Amino-3-methyl-butyrylsulfamoyl)-2-chloro-phenyl]-2-[4-chloro-3-(3-chloro-5-cyano-phenoxy)-2-fluoro-phenyl]-acetamide; sodium salt], for which the melting point is 219.4 to 220.2 °C.

For the compound `Cc1cc(S(=O)(=O)NC2CCOCC2)ccc1NC(=O)Cc1ccc(C)c(Oc2cc(Cl)cc(C#N)c2)c1` [Compound I-128, 2-[3-(3-Chloro-5-cyano-phenoxy)-4-methyl-phenyl]-N-[2-methyl-4-(tetrahydro-pyran-4-ylsulfamoyl)-phenyl]-acetamide], the melting point was 171.7 to 172.6 °C.

For the compound `Cc1cc(S(=O)(=O)NCC(C)O)ccc1NC(=O)Cc1ccc(C)c(Oc2cc(Cl)cc(C#N)c2)c1` (stereo not shown) [Compound I-129, 2-[3-(3-Chloro-5-cyano-phenoxy)-4-methyl-phenyl]-N-[4-(2-hydroxy-propylsulfamoyl)-2-methyl-phenyl]-acetamide], the melting point was in the range of 172.2 to 173.4 °C.

`CSCCNS(=O)(=O)c1ccc(NC(=O)Cc2ccc(C)c(Oc3cc(Cl)cc(C#N)c3)c2)c(C)c1` [Compound I-130, 2-[3-(3-Chloro-5-cyano-phenoxy)-4-methyl-phenyl]-N-[2-methyl-4-(2-methylsulfanyl-ethylsulfamoyl)-phenyl]-acetamide] came in with a melting point of 155.6 to 156.6 °C.

The compound `CSCCCNS(=O)(=O)c1ccc(NC(=O)Cc2ccc(C)c(Oc3cc(Cl)cc(C#N)c3)c2)c(C)c1` [Compound I-131, 2-[3-(3-Chloro-5-cyano-phenoxy)-4-methyl-phenyl]-N-[2-methyl-4-(3-methylsulfanyl-propylsulfamoyl)-phenyl]-acetamide] had a melting point of 159.9 to 162.8 °C.

`COc1cc(CC(=O)Nc2ccc(S(N)(=O)=O)cc2)cc(Oc2cc(Cl)cc(C#N)c2)c1` [Compound I-132, 2-[3-(3-Chloro-5-cyano-phenoxy)-5-methoxy-phenyl]-N-(4-sulfamoyl-phenyl)-acetamide] registered a melting point of 184.1 to 185.5 °C.

`COc1cc(CC(=O)Nc2ccc(S(N)(=O)=O)cc2C)cc(Oc2cc(Cl)cc(C#N)c2)c1` [Compound I-133, 2-[3-(3-Chloro-5-cyano-phenoxy)-5-methoxy-phenyl]-N-(2-methyl-4-sulfamoyl-phenyl)-acetamide] registered a melting point of 169.9 to 171.1 °C.

Take `COc1cc(CC(=O)Nc2ccc(S(N)(=O)=O)cc2Cl)cc(Oc2cc(Cl)cc(C#N)c2)c1` [Compound I-136, 2-[3-(3-Chloro-5-cyano-phenoxy)-5-methoxy-phenyl]-N-(2-chloro-4-sulfamoyl-phenyl)-acetamide]: the melting point was 159 to 161.1 °C.

`Cc1cc(S(=O)(=O)CCC#N)ccc1NC(=O)Cc1ccc(C)c(Oc2cc(Cl)cc(C#N)c2)c1` [Compound I-137, 2-[3-(3-Chloro-5-cyano-phenoxy)-4-methyl-phenyl]-N-[4-(2-cyano-ethanesulfonyl)-2-methyl-phenyl]-acetamide] showed a melting point of 186.1 to 188 °C.

`CCCC(=O)NS(=O)(=O)c1ccc(NC(=O)Cc2ccc(Cl)c(Oc3cc(Cl)cc(C#N)c3)c2F)c(Cl)c1.[Na]` [Compound I-138, N-(4-Butyrylsulfamoyl-2-chloro-phenyl)-2-[4-chloro-3-(3-chloro-5-cyano-phenoxy)-2-fluoro-phenyl]-acetamide; sodium salt] returned a melting point of 157.2 to 157.9 °C.

The compound `CCCC(=O)N(C)S(=O)(=O)c1ccc(NC(=O)Cc2ccc(Cl)c(Oc3cc(Cl)cc(C#N)c3)c2F)c(Cl)c1` [Compound I-139, N-[4-(Butyryl-methyl-sulfamoyl)-2-chloro-phenyl]-2-[4-chloro-3-(3-chloro-5-cyano-phenoxy)-2-fluoro-phenyl]-acetamide] displayed a melting point of 186.9 to 187.6 °C.

Compound `CCc1ccc(CC(=O)Nc2ccc(S(N)(=O)=O)cc2Cl)cc1Oc1cc(C#N)cc(C(F)F)c1` [Compound I-140, N-(2-Chloro-4-sulfamoyl-phenyl)-2-[3-(3-cyano-5-difluoromethyl-phenoxy)-4-ethyl-phenyl]-acetamide] yielded a melting point of 191.8 to 192.5 °C.

`Cc1cc(CC(=O)Nc2ccc(S(N)(=O)=O)cc2)cc(Oc2cc(Cl)cc(C#N)c2)c1` [Compound I-141, 2-[3-(3-Chloro-5-cyano-phenoxy)-5-methyl-phenyl]-N-(4-sulfamoyl-phenyl)-acetamide] had a melting point of 183.9 to 185.2 °C.

With `Cc1cc(CC(=O)Nc2ccc(S(N)(=O)=O)cc2C)cc(Oc2cc(Cl)cc(C#N)c2)c1` [Compound I-142, 2-[3-(3-Chloro-5-cyano-phenoxy)-5-methyl-phenyl]-N-(2-methyl-4-sulfamoyl-phenyl)-acetamide], the melting point lay within 184.8 to 186 °C.

Turning to `Cc1cc(CC(=O)Nc2ccc(S(N)(=O)=O)cc2Cl)cc(Oc2cc(Cl)cc(C#N)c2)c1` [Compound I-143, 2-[3-(3-Chloro-5-cyano-phenoxy)-5-methyl-phenyl]-N-(2-chloro-4-sulfamoyl-phenyl)-acetamide], the melting point is 194.1 to 195.9 °C.

The compound `N#Cc1cccc(Oc2cc(CC(=O)Nc3ccc(S(N)(=O)=O)cc3)cc3ccoc23)c1` [Compound I-144, 2-[7-(3-Cyano-phenoxy)-benzofuran-5-yl]-N-(4-sulfamoyl-phenyl)-acetamide] had a melting point of 196.4 to 198.7 °C.

`Cc1cc(S(N)(=O)=O)ccc1NC(=O)Cc1cc(Oc2cccc(C#N)c2)c2occc2c1` [Compound I-145, 2-[7-(3-Cyano-phenoxy)-benzofuran-5-yl]-N-(2-methyl-4-sulfamoyl-phenyl)-acetamide] registered a melting point of 218.9 to 220 °C.

For `Cc1cc(CC(=O)Nc2ccc(S(N)(=O)=O)cc2)cc(Oc2cc(C#N)ccc2Cl)c1` [Compound I-146, 2-[3-(2-Chloro-5-cyano-phenoxy)-5-methyl-phenyl]-N-(4-sulfamoyl-phenyl)-acetamide], the melting point is 235.9 to 236.7 °C.

In turn, `Cc1cc(CC(=O)Nc2ccc(S(N)(=O)=O)cc2C)cc(Oc2cc(C#N)ccc2Cl)c1` [Compound I-147, 2-[3-(2-Chloro-5-cyano-phenoxy)-5-methyl-phenyl]-N-(2-methyl-4-sulfamoyl-phenyl)-acetamide] came in with a melting point of 200.3 to 201.1 °C.

Take `Cc1cc(CC(=O)Nc2ccc(S(N)(=O)=O)cc2Cl)cc(Oc2cc(C#N)ccc2Cl)c1` [Compound I-148, 2-[3-(2-Chloro-5-cyano-phenoxy)-5-methyl-phenyl]-N-(2-chloro-4-sulfamoyl-phenyl)-acetamide]: the melting point lay in the range of 212.9 to 214.4 °C.

With `NS(=O)(=O)c1ccc(NC(=O)Cc2cc(Oc3cc(Cl)cc(Cl)c3)c3occc3c2)c(Cl)c1` [Compound I-149, N-(2-Chloro-4-sulfamoyl-phenyl)-2-[7-(3,5-dichloro-phenoxy)-benzofuran-5-yl]-acetamide], the melting point lay within 215.1 to 216.6 °C.

These data come from US8329755B2, “Methods for treating retroviral infections” (Roche Palo Alto LLC, priority 2004, dated 2012).
